Assay type in all cases: in vivo, Swiss mice
Data set [1] relates to mice. Description: Sodium barbital induced sleep time measurement. The protocol: (§1) Male and female Swiss mice having weights between about 18 to 22 g were used in the Examples provided below. Mice were housed in groups of 10 mice in a breeding room having a controlled temperature of about 22±2° C. Each group had free access to standard diet pellets and tap water.
(§2) Each of the extract combinations “BS” and “BY” produced in Example 1, was prepared for oral administration (PO) by ultrasonically dispersing each extract in distilled water containing about 0.5% Tween-80. Diazepam was also prepared for administration by ultrasonically dispersing the Diazepam in distilled water containing about 0.5% Tween-80.
(§3) Each of the BY, BS, and Diazepam compositions was administered orally to separate groups of mice at a dosage of 10 mL/kg body weight.
(§4) Dosages of the BS, BY, Diazepam compositions, and the sterile distilled water were administered orally to groups of mice, wherein each group comprised at least 10 mice.
Mice were administered 90 mg/kg sodium barbital via intraperitoneal injection (ip). Mice were then positioned on their back. The time that elapsed between administration of the sodium barbital and when each animal lost their righting reflex represented the time period between latency to the onset of sleep. The BS, BY, Diazepam, and the control treatments were administered to separate groups of mice. Each group of mice received their treatment about 7 days prior to the administration of the sodium barbital. The duration of sleeping time was calculated as the time interval between the loss of righting reflex to the time of recovery of this reflex. In studying the effects of the BS and BY extracts, the comparison of the durations of sleeping time between mice receiving the BS, BY, Diazepam treatments and the control treatments, was used as the main criterion of measurement.

The test system of data set [2] is mice. The data set is described as follows: Locomotor activity measurements (square arena). To be noted: for Locomotor activity count: dose 1 mg/kg oral, mean ± SE, n = 10. The method, then: as §1, §2, §3, §4
The effects of the BS treatments and the BY treatments on inhibition of central nervous system were evaluated by measurements of the locomotor activities of mice.
Each mouse was placed in the center of a square arena having dimensions of approximately 60 cm×60 cm×35 cm. […] The arena was illuminated using red 25 W bulbs on the ceiling. The total number of squares each mouse entered in a 5 minute period was recorded by an overhead video camera. The camera was linked to a monitor and video recorder in an adjacent laboratory.
The locomotor activity of the mice were recorded both before and 30-minutes, 60-minutes, 120-minutes, and 180-minutes after administration of one of BS, BY, Diazepam, and the control.
All locomotor activity recordings were carried out with the observer unaware of the treatment that was administered to each of the mice.

Data set [3] deals with mice. The data set is described as follows: Inclined plane test. The protocol:
as §1, §2
Each of the BY, BS, and Diazepam compositions was administered orally to separate groups of mice at a dosage of 10 mL/kg body weight. […]
Effects of the BS and BY compositions on the motor functions of mice were evaluated using an inclined plane test.
The inclined plane consisted of two rectangular steel boards connected at one end by a hinge. […] The maximum inclination of the plane at which a mouse could maintain itself in position for at least 5 seconds was recorded, and interpreted to represent the mouse's functional ability. The test was performed in triplicate for each mouse and the mean value was recorded as the maximum inclination.

For data set [4], the system named is mice. Description: Traction test. The protocol: as §1
Each of the extract combinations “BS” and “BY” produced in Example 1, was prepared for oral administration (PO) by ultrasonically dispersing each extract in distilled water containing about 0.5% Tween-80. Diazepam was also prepared for administration by ultrasonically dispersing the Diazepam in distilled water containing about 0.5% Tween-80. […]
The effects of the BS and BY compositions on inhibition of muscle coordination systems were evaluated using a traction test.
A wire having a diameter of about 1.6 mm and length of about 30 cm was stretched and secured horizontally at a height of about 30 cm above a surface. […] The duration of time each mouse clung to the wire was recorded up to a maximum of 60 seconds.
The test was performed about 60 minutes after the administration of one of the BS, BY, Diazepam, and the control compositions. […] The durations of clinging time measured for each group of mice were calculated using the mean value of triplicates for each mouse. If the duration of clinging time was greater than 60 seconds, the mouse was released from the wire, and the clinging time was recorded 60 seconds.

[5] abbreviates: dose 1.0 mg/kg oral, sodium barbital 90 mg/kg ip, mean ± SE, n = 10.

Turning to `CN1C(=O)CN=C(c2ccccc2)c2cc(Cl)ccc21` [Diazepam], the “sodium barbital-induced sleeping time compared to the controls (in words)” value in data set [1] (dosage 1.0 mg/kg) was “significantly prolonged”. The “Duration of Sleep” value in data set [1] (setting [5]) was determined as 72.8 ± 7.5 min. In addition, the Sleep latency in data set [1] (setting [5]) came to 169.1 ± 12.4 s. The “effects on the locomotor activity of the mice (in words)” value in data set [2] (all doses and times of Table 2) was “None of the BS, BY and Diazepam compositions had any significant effects”. Also, the Locomotor activity count in data set [2] (0 minutes (before administration), squares entered in 5 min) is listed as 80.4 ± 6.7; in data set [2] (30 minutes after administration) it was 68.9 ± 4.9; in data set [2] (60 minutes after administration) it was 56.7 ± 3.8; in data set [2] (120 minutes after administration) it was 52.6 ± 3.6; in data set [2] (180 minutes after administration) it was 47.6 ± 3.4. In addition, the Maximum inclination in data set [3] (dose 9 mg/kg oral, position held at least 5 seconds, mean ± SE, n = 10) turned out to be 51.5 ± 0.9 degrees. Moreover, in data set [3] (doses of Table 4), the “degrees of inclination compared to control (in words)” value was “markedly reduced”. Besides, the Duration of clinging in data set [4] (dose 9 mg/kg oral, about 60 minutes after administration, maximum 60 seconds, mean ± SE, n = 10) was 19.6 ± 4.9 s. Moreover, in data set [4] (doses of Table 3), the “durations of clinging time compared to control (in words)” value is “markedly reduced”.

These data come from patent US7968128B2, “Plant extract compositions for affecting sleep” (VIVA Pharmaceutical Inc., priority 2008, dated 2011).
